# Residues, ends and D or L forms follow the SMILES beside them. *: point of attachment. Cbz = O=C(OCc1ccccc1)*; CH2Cl = ClC*
# What was measured:
# T^frat cells [1] = assay: Degranulation (CD107a) in T^frat cells cultured with rCD31 with or without PI3K or ERK1/2 inhibitors; type: cell-based, mouse; conditions: rCD31 with inhibitor (100 nM), 24 h
# T^frat cells [2] = assay: Gzm B levels in T^frat cells after NAD repletion or SIRT1 activator; type: cell-based, mouse; conditions: NAD (1 mM) or SIRT1 activator (1 or 2 μM), 24 h
# Protocol: (§1) PD1^+CD38^hi and Teff CD8 T cells were generated by our previously reported method^2. In brief, MACS purified (>90%) OT1-CD8 (CD45.1) T cells from mouse spleen were activated either with low-affinity OVA-V peptide or with high-affinity OVA peptide ([…]) in T cell medium supplemented with 30 international units (IU) of IL-2 for 48 hours followed by FACS purification of PD1^+CD38^hi and PD1^+CD38^lo T cells respectively. Various cell surface and intracellular markers as well as level of pro- and anti-inflammatory cytokines, and cytolytic molecules were analyzed by flow cytometry as explained in the next section. In some experiments, CD38 was KD using siRNA for 24 h prior to various marker analysis. Furthermore, in a few experiments, either NAD (1 mM) or SIRT1 activator (1 or 2 μM) were added to the Tfrat cells for 24 h and levels of Gzm B were measured in these cells and in Teff cells by flow cytometry. To determine the role of CD38:CD31 interaction and signaling in Gzm B degranulation, Tfrat cells were cultured with rCD31 (1 or 5 μg) with or without PI3K or ERK1/2 inhibitors (100 nM). After 24 h, degranulation of Gzm B in T^frat cells was measured by CD1071 staining and levels of various signaling molecules by flow cytometry.
# [3] = tested on: target pMel-1 CD8 T cells; assay: Co-culture (in vitro cell killing) of PD1+CD38hi or Teff CD8 T cells with target pMel-1 CD8 T cells; annexin V, caspase3/7, live/dead staining; type: cell-based; conditions: co-incubation of T^frat and target cells with blocking antibody or inhibitor
# From the text: For the flow cytometry analysis of lymphocytes of mouse and human origin, 1-2×10^6 cells per sample were stained with the LIVE/DEAD fixable near-IR dead cell stain kit (Invitrogen; catalog no. L10119) followed by fixation and permeabilization. All surface and intracellular markers were stained at the same time in fix and per buffer as per manufacturer's recommendations. For IFN-7 and Gzm B staining, the BD Biosciences Cytofix/Cytoperm (catalog no. 51-2090KZ) and BD Biosciences Perm/Wash (catalog no. 51-2091KZ) buffer sets were used according to the manufacturer's instructions. In a few experiments, variously treated cells were processed for annexin V staining to check the extent of apoptosis. For this, collected cells were stained for annexin V in annexin binding buffer (ABB) (BD Biosciences) for 30 minutes at 4° C. […]
# PD1^+CD38^hi and Teff CD8 T cells were co-cultured overnight with FACS-sorted Thy1.1 target pMel-1 CD8^+ T cells (killer to target cell ratio 1:1) that were activated with gp100 peptide (1 μM per 10^6 cells per mL). […] In addition to the annexin V staining, Gzm B levels in the pMel-1 target CD8 or CD4 T cells and […] levels in the Tfrat cells after their co-culture in the presence or absence of anti-CD38/CD31 were measured by flow cytometry. […] Viability of target cells was assessed by FACS analysis using fixable Live/Dead stain.
# [4] = tested on: Zap70, PI3K, RAC, and ERK in T^frat cells; assay: Signaling molecules in T^frat cells incubated with rCD31 (Western blotting); type: cell-based, mouse; conditions: incubation with rCD31 (1 or 5 μg)
# Protocol: as §1, with “After 24 h, degranulation of Gzm B in T^frat cells was measured by CD1071 staining and levels of various signaling molecules by flow cytometry.” left out
molecule,measurement,setting,value
"O=C(Nc1ccc2[nH]nc(-c3ccncc3)c2c1)[C@@H]1CCN(CC(=O)N2CCN(c3ccc(-c4ncccn4)cc3)CC2)C1 [ERK inhibitor, SCH772984]","degranulation of Gzm B resulting from CD38:CD31 engagement, measured by CD107a level",T^frat cells [1],inhibited
NC(=O)c1ccc[n+]([C@@H]2O[C@H](COP(=O)([O-])OP(=O)(O)OC[C@H]3O[C@@H](n4cnc5c(N)ncnc54)[C@H](O)[C@@H]3O)[C@@H](O)[C@H]2O)c1 [NAD],expression of Gzm B in T^frat,T^frat cells [2],decrease in the expression of Gzm B
Cl.O=C(Nc1ccccc1-c1cn2c(CN3CCNCC3)csc2n1)c1cnc2ccccc2n1 [SRT1720 HCl],expression of Gzm B in T^frat,T^frat cells [2],decrease in the expression of Gzm B
C[C@H](NC(=O)OCc1ccccc1)C(=O)N[C@@H](C)C(=O)N[C@@H](CC(=O)O)C(=O)CCl [Z-AAD-CMK] (Cbz-Ala-Ala-Asp-CH2Cl),T^frat-mediated apoptosis in target pMel-1 CD8 T cells in presence of the agent (annexin V),[3],fully abrogated
"rCD31: recombinant CD31 protein (3628-PC-050, R&D) (protein) EENSFTINSIHMESLPSWEVMNGQQLTLECLVDISTTSKSRSQHRVLFYKDDAMVYNVTSREHTESYVIPQARVFHSGKYKCTVMLNNKEKTTIEYEVKVHGVSKPKVTLDKKEVTEGGVVTVNCSLQEEKPPIFFKIEKLEVGTKFVKRRIDKTSNENFVLMEFPIEAQDHVLVFRCQAGILSGFKLQESEPIRSEYVTVQESFSTPKFEIKPPGMIIEGDQLHIRCIVQVTHLVQEFTEIIIQKDKAIVATSKQSSEAVYSVMAMVEYSGHYTCKVESNRISKASSIMVNITELFPKPKLEFSSSRLDQGELLDLSCSVSGTPVANFTIQKEETVLSQYQNFSKIAEESDSGEYSCTAGIGKVVKRSGLVPIQVCEMLSKPSIFHDAKSEIIKGHAIGISCQSENGTAPITYHLMKAKSDFQTLEVTSNDPATFTDKPTRDMEYQCRADNCHSHPAVFSEILRVRVIAPVDEVVISILSSNEVQSGSEMVLRCSVKEGTSPITFQFYKEKEDRPFHQAVVNDTQAFWHNKQASKKQEGQYYCTASNRASSMRTSPRSSTLAVRVFLAPWKK","expression of phosphorylated Zap70, PI3K, RAC, and ERK in T^frat cells",[4],"increase in the expression of phosphorylated Zap70, PI3K, RAC, and ERK"

# — US20260167715A1, “PD-1+CD38HICD8+ KILLER T CELLS AND USES THEREOF” (GEORGETOWN UNIVERSITY, priority 2022, published 2026)
